According to US20230256102A1, “COMPOSITES AND USES THEREOF” (YISSUM RESEARCH DEVELOPMENT COMPANY OF THE HEBREW …, priority 2019, published 2023):
Square brackets hold non-standard residues; d marks the D form. Peptide text beside a SMILES is read from it. * marks the point of attachment. Palmitoyl = CCCCCCCCCCCCCCCC(=O)*

How the values were obtained:
[1] = test system: Xanthomonas campestris pv. campestris (Xcc) ATCC 33913; assay: Minimal inhibitory concentration (MIC) assay; assay type: cell-based; conditions: for Average MIC / MIC value: 24 h, 28° C.; for Average MIC: ND = non-detected at tested concentrations (up to 200 μg/ml); for inhibitory activity in MIC assay (in words): highest concentration tested 200 μg/ml
Description: Bacterial strains and growth conditions: The bacterial strains used in this study are detailed in Table 2. Unless stated otherwise, all strains were grown on nutrient agar (NA, Difco) or nutrient broth (NB, Difco), except Pst that was grown on Kings B agar plates and NB. All strains were grown at 28° C. for 48 h. All bacterial cells used in this study were stored in 25% glycerol at −80° C.
Minimal inhibitory concentration (MIC) assay: MIC values were determined by broth microdilution in sterile 96-flat bottom well plates (Corning 3650) as described by Hayouka et al. (2013). Briefly, Xcc cells were grown for 24 h in NB at 28° C., with shaking (180 rpm) and re-suspended in fresh NB to reach an OD600 nm of 0.1 (˜10^8 CFU/ml) that was measured using a Genesys 10 uv spectrophotometer (ThermoSpectronic). One hundred microliter-aliquots of Xcc cells were added to 100 μl of NB medium containing peptides/lipopeptides at various concentrations. Bacterial growth was determined after incubation of 24 h at 28° C. by measurement of the optical density (OD595 nm), using a Tecan infinite Pro Plate reader. […] The highest concentration tested was 200 μg/ml. Each experiment was carried out at least three times, with three replicates per strain/concentration combination in each experiment.

MRSA cells = assay: Mixing leucine-lysine random peptide mixtures and copper ions assay; assay type: cell-based, Staphylococcus aureus; conditions: 400 ppm copper sulfate, 6 hours
Description: Mixing Leucine-Lysine random peptide mixtures and copper ions assay: MRSA cells were grown as described in order to prepare a bacterial suspension with O.D.600 nm of 0.1. […] After mixing by vortex, a 1 mL sample was taken for O.D. measurement and the remaining 1 mL sample was incubated for 6 hours at 37° C., 100 RPM. After this time, the O.D. was re-measured and the percentage growth was calculated according to the equation: […]

Molecule: CCCCCCCCCCCCCCCC(=O)N[C@H](CCCCN)C(=O)N[C@H](CCCCN)C(=O)N[C@@H](Cc1ccccc1)C(=O)N[C@H](CCCCN)C(=O)N[C@H](CCCCN)C(N)=O [lipopeptide #4, p-kkFkk] (Palmitoyl-[dK][dK]F[dK][dK]-NH2)
- Average MIC [1]: 6 µg/mL

Molecule: CCCCCCCCCCCCCCCC(=O)N[C@H](CCCCN)C(=O)N[C@H](CCCCN)C(=O)N[C@@H](Cc1ccccc1)C(=O)N[C@@H](Cc1ccccc1)C(=O)N[C@@H](Cc1ccccc1)C(N)=O [lipopeptide #17, p-kkFFF] (Palmitoyl-[dK][dK]FFF-NH2)
- Average MIC [1]: 50 µg/mL

Molecule: CCCCCCCCCCCCCCCC(=O)N[C@H](CCCCN)C(=O)N[C@H](CCCCN)C(=O)N[C@H](CCCCN)C(=O)N[C@@H](Cc1ccccc1)C(=O)N[C@@H](Cc1ccccc1)C(N)=O [lipopeptide #7, p-kkkFF] (Palmitoyl-[dK][dK][dK]FF-NH2)
- Average MIC [1]: 14 µg/mL

Molecule: CCCCCCCCCCCCCCCC(=O)N[C@H](CCCCN)C(=O)N[C@@H](Cc1ccccc1)C(=O)N[C@H](CCCCN)C(=O)N[C@@H](Cc1ccccc1)C(=O)N[C@H](CCCCN)C(N)=O [lipopeptide #12, p-kFkFk] (Palmitoyl-[dK]F[dK]F[dK]-NH2)
- Average MIC [1]: 12 µg/mL

Molecule: CCCCCCCCCCCCCCCC(=O)N[C@@H](Cc1ccccc1)C(=O)N[C@H](CCCCN)C(=O)N[C@H](CCCCN)C(=O)N[C@@H](Cc1ccccc1)C(=O)N[C@H](CCCCN)C(N)=O [lipopeptide #13, p-FkkFk] (Palmitoyl-F[dK][dK]F[dK]-NH2)
- Average MIC [1]: 6 µg/mL

Molecule: CCCCCCCCCCCCCCCC(=O)N[C@@H](Cc1ccccc1)C(=O)N[C@@H](Cc1ccccc1)C(=O)N[C@H](CCCCN)C(=O)N[C@H](CCCCN)C(=O)N[C@H](CCCCN)C(N)=O [lipopeptide #16, p-FFkkk] (Palmitoyl-FF[dK][dK][dK]-NH2)
- MIC value [1]: 50 µg/mL

Molecule: CCCCCCCCCCCCCCCC(=O)N[C@H](CCCCN)C(=O)N[C@@H](Cc1ccccc1)C(=O)N[C@H](CCCCN)C(=O)N[C@H](CCCCN)C(=O)N[C@@H](Cc1ccccc1)C(N)=O [lipopeptide #9, p-kFkkF] (Palmitoyl-[dK]F[dK][dK]F-NH2)
- Average MIC [1]: 5 µg/mL

Molecule: CCCCCCCCCCCCCCCC(=O)N[C@H](CCCCN)C(=O)N[C@@H](Cc1ccccc1)C(=O)N[C@@H](Cc1ccccc1)C(=O)N[C@H](CCCCN)C(=O)N[C@H](CCCCN)C(N)=O [lipopeptide #14, p-kFFkk] (Palmitoyl-[dK]FF[dK][dK]-NH2)
- Average MIC [1]: 8 µg/mL

Molecule: CCCCCCCCCCCCCCCC(=O)N[C@@H](Cc1ccccc1)C(=O)N[C@H](CCCCN)C(=O)N[C@@H](Cc1ccccc1)C(=O)N[C@H](CCCCN)C(=O)N[C@@H](Cc1ccccc1)C(N)=O [lipopeptide #21, p-FkFkF] (Palmitoyl-F[dK]F[dK]F-NH2)
- Average MIC [1]: 38 µg/mL

Molecule: p-FFkFk [lipopeptide #25]
- inhibitory activity in MIC assay (in words) [1]: no inhibitory activity

Molecule: p-FFFkk [lipopeptide #26]
- inhibitory activity in MIC assay (in words) [1]: not active

Molecule: CCCCCCCCCCCCCCCC(=O)N[C@H](CCCCN)C(=O)N[C@H](CCCCN)C(=O)N[C@H](CCCCN)C(=O)N[C@@H](Cc1ccccc1)C(=O)N[C@H](CCCCN)C(N)=O [lipopeptide #3, p-kkkFk] (Palmitoyl-[dK][dK][dK]F[dK]-NH2)
- Average MIC [1]: 4 µg/mL

Molecule: CCCCCCCCCCCCCCCC(=O)N[C@H](CCCCN)C(=O)N[C@@H](Cc1ccccc1)C(=O)N[C@H](CCCCN)C(=O)N[C@H](CCCCN)C(=O)N[C@H](CCCCN)C(N)=O [lipopeptide #5, p-kFkkk] (Palmitoyl-[dK]F[dK][dK][dK]-NH2)
- Average MIC [1]: 6 µg/mL

Molecule: CCCCCCCCCCCCCCCC(=O)N[C@@H](Cc1ccccc1)C(=O)N[C@H](CCCCN)C(=O)N[C@H](CCCCN)C(=O)N[C@H](CCCCN)C(=O)N[C@@H](Cc1ccccc1)C(N)=O [lipopeptide #10, p-FkkkF] (Palmitoyl-F[dK][dK][dK]F-NH2)
- Average MIC [1]: 6 µg/mL

Molecule: CCCCCCCCCCCCCCCC(=O)N[C@H](CCCCN)C(=O)N[C@@H](Cc1ccccc1)C(=O)N[C@@H](Cc1ccccc1)C(=O)N[C@@H](Cc1ccccc1)C(=O)N[C@H](CCCCN)C(N)=O [lipopeptide #23, p-kFFFk] (Palmitoyl-[dK]FFF[dK]-NH2)
- Average MIC [1]: 100 µg/mL

Molecule: p-FFkkF [lipopeptide #22]
- inhibitory activity in MIC assay (in words) [1]: no inhibitory activity

Molecule: CCCCCCCCCCCCCCCC(=O)N[C@H](CCCCN)C(=O)N[C@H](CCCCN)C(=O)N[C@@H](Cc1ccccc1)C(=O)N[C@H](CCCCN)C(=O)N[C@@H](Cc1ccccc1)C(N)=O [lipopeptide #8, p-kkFkF] (Palmitoyl-[dK][dK]F[dK]F-NH2)
- Average MIC [1]: 6 µg/mL

Molecule: CCCCCCCCCCCCCCCC(=O)N[C@@H](Cc1ccccc1)C(=O)N[C@H](CCCCN)C(=O)N[C@H](CCCCN)C(=O)N[C@@H](Cc1ccccc1)C(=O)N[C@@H](Cc1ccccc1)C(N)=O [lipopeptide #19, p-FkkFF] (Palmitoyl-F[dK][dK]FF-NH2)
- MIC value [1]: 38 µg/mL

Molecule: CCCCCCCCCCCCCCCC(=O)N[C@@H](Cc1ccccc1)C(=O)N[C@H](CCCCN)C(=O)N[C@H](CCCCN)C(=O)N[C@H](CCCCN)C(=O)N[C@H](CCCCN)C(N)=O [lipopeptide #6, p-Fkkkk] (Palmitoyl-F[dK][dK][dK][dK]-NH2)
- MIC value [1]: 12 µg/mL

Molecule: CCCCCCCCCCCCCCCC(=O)N[C@@H](Cc1ccccc1)C(=O)N[C@H](CCCCN)C(=O)N[C@@H](Cc1ccccc1)C(=O)N[C@H](CCCCN)C(=O)N[C@H](CCCCN)C(N)=O [lipopeptide #15, p-FkFkk] (Palmitoyl-F[dK]F[dK][dK]-NH2)
- Average MIC [1]: 10 µg/mL

Molecule: CCCCCCCCCCCCCCCC(=O)N[C@H](CCCCN)C(=O)N[C@H](CCCCN)C(=O)N[C@H](CCCCN)C(=O)N[C@H](CCCCN)C(=O)N[C@H](CCCCN)C(N)=O [lipopeptide #1, p-kkkkk] (Palmitoyl-[dK][dK][dK][dK][dK]-NH2)
- Average MIC [1]: 6 µg/mL

Molecule: CCCCCCCCCCCCCCCC(=O)N[C@H](CCCCN)C(=O)N[C@H](CCCCN)C(=O)N[C@@H](Cc1ccccc1)C(=O)N[C@@H](Cc1ccccc1)C(=O)N[C@H](CCCCN)C(N)=O [lipopeptide #11, p-kkFFk] (Palmitoyl-[dK][dK]FF[dK]-NH2)
- Average MIC [1]: 6 µg/mL

Molecule: CCCCCCCCCCCCCCCC(=O)N[C@H](CCCCN)C(=O)N[C@@H](Cc1ccccc1)C(=O)N[C@H](CCCCN)C(=O)N[C@@H](Cc1ccccc1)C(=O)N[C@@H](Cc1ccccc1)C(N)=O [lipopeptide #18, p-kFkFF] (Palmitoyl-[dK]F[dK]FF-NH2)
- Average MIC [1]: 50 µg/mL

Molecule: p-FkFFk [lipopeptide #24]
- inhibitory activity in MIC assay (in words) [1]: no inhibitory activity

Molecule: O=S(=O)([O-])[O-].[Cu+2] [copper sulfate]
- growth of MRSA lower than the control (MRSA cells): ~15%

Molecule: CCCCCCCCCCCCCCCC(=O)N[C@H](CCCCN)C(=O)N[C@H](CCCCN)C(=O)N[C@H](CCCCN)C(=O)N[C@H](CCCCN)C(=O)N[C@@H](Cc1ccccc1)C(N)=O [lipopeptide #2, p-kkkkF] (Palmitoyl-[dK][dK][dK][dK]F-NH2)
- Average MIC [1]: 6 µg/mL

Molecule: CCCCCCCCCCCCCCCC(=O)N[C@H](CCCCN)C(=O)N[C@@H](Cc1ccccc1)C(=O)N[C@@H](Cc1ccccc1)C(=O)N[C@H](CCCCN)C(=O)N[C@@H](Cc1ccccc1)C(N)=O [lipopeptide #20, p-kFFkF] (Palmitoyl-[dK]FF[dK]F-NH2)
- Average MIC [1]: 100 µg/mL
